Results: article PMC9005681, “Use of AD Informer Set compounds to explore validity of novel targets in Alzheimer's disease pathology” (Alzheimer's & Dementia : Translational Research & Clinical …, 2022)
Where “and” joins values, the source holds several entries; their conditions need not be identical. Equal values may be shown once.

Experiments:
Experiment in all cases: PDSP GPCR panel primary binding assays at 10 μM
[1] = target: T1, cloned human or rodent CNS receptors, channels, and transporters (PDSP panel) (Homo sapiens, UniProt Q01959); conditions: DAT, primary assay; for Mean %: mean inhibition; for Inhibition 1: replicate 1; for Inhibition 2: replicate 2; for Inhibition 3: replicate 3; for Inhibition 4: replicate 4
T1 construct: expressed in transfected cells
Outline: (§1)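 Radioligand displacement at cloned human or rodent CNS targets: 46–47 primary binding assays run in quadruplicate at 10 μM. Targets where the compound displaced an average of >50% of radiolabeled standard ligand went to secondary binding in 11-point dose-response, in triplicate; none run for H3, PBR or GABAA.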

[2] = target: T2, cloned human or rodent CNS receptors, channels, and transporters (PDSP panel) (Homo sapiens, UniProt P41595); conditions: 5-HT2B, primary assay; for Mean %: mean inhibition; for Inhibition 1: replicate 1; for Inhibition 2: replicate 2; for Inhibition 3: replicate 3; for Inhibition 4: replicate 4
T2 construct: expressed in transfected cells
Outline: as §1

[3] = target: T3, cloned human or rodent CNS receptors, channels, and transporters (PDSP panel) (Homo sapiens, UniProt P35367); conditions: H1, primary assay; for Mean %: mean inhibition; for Inhibition 1: replicate 1; for Inhibition 2: replicate 2; for Inhibition 3: replicate 3; for Inhibition 4: replicate 4
T3 construct: expressed in transfected cells
Outline: as §1

[4] = target: T4, cloned human or rodent CNS receptors, channels, and transporters (PDSP panel) (Homo sapiens, UniProt P23975); conditions: NET, primary assay; for Mean %: mean inhibition; for Inhibition 1: replicate 1; for Inhibition 2: replicate 2; for Inhibition 3: replicate 3; for Inhibition 4: replicate 4
T4 construct: expressed in transfected cells
Outline: as §1

[5] = target: T5, cloned human or rodent CNS receptors, channels, and transporters (PDSP panel) (Homo sapiens, UniProt P08172); conditions: M2, primary assay; for Mean %: mean inhibition; for Inhibition 1: replicate 1; for Inhibition 2: replicate 2; for Inhibition 3: replicate 3; for Inhibition 4: replicate 4
T5 construct: expressed in transfected cells
T5 sequence (P08172 1-466): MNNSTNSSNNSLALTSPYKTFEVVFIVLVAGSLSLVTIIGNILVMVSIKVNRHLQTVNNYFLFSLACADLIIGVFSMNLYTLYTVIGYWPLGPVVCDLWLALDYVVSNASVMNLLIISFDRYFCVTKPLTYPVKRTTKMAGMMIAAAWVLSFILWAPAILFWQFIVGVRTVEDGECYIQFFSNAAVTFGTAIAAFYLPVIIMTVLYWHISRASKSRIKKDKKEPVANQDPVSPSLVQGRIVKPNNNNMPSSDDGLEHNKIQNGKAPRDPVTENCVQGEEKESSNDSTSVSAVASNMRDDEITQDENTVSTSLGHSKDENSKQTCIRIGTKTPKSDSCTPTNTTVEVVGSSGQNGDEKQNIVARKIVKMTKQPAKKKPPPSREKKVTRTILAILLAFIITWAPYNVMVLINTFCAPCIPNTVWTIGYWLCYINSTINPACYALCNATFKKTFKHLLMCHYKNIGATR
Outline: as §1

[6] = target: T6, cloned human or rodent CNS receptors, channels, and transporters (PDSP panel) (Homo sapiens, UniProt P08912); conditions: M5, primary assay; for Mean %: mean inhibition; for Inhibition 1: replicate 1; for Inhibition 2: replicate 2; for Inhibition 3: replicate 3; for Inhibition 4: replicate 4
T6 construct: expressed in transfected cells
T6 sequence (P08912 1-532): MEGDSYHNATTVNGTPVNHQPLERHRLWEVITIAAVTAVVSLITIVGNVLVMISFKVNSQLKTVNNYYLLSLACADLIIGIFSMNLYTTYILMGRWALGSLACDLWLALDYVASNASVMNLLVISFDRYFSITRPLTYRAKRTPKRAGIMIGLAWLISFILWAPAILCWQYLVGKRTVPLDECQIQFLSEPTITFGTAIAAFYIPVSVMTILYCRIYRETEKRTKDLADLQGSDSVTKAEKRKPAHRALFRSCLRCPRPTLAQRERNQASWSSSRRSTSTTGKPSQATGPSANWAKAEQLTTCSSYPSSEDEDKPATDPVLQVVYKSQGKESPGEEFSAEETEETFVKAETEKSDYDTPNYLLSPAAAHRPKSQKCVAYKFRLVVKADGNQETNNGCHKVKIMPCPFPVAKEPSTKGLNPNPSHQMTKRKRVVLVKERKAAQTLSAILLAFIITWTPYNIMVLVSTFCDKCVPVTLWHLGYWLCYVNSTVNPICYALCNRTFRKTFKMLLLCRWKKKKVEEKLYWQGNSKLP
Outline: as §1

[7] = system: cloned human or rodent CNS receptors, channels, and transporters (PDSP panel); conditions: primary assay; for Mean %: mean inhibition; for Inhibition 1: replicate 1; for Inhibition 2: replicate 2; for Inhibition 3: replicate 3; for Inhibition 4: replicate 4
Outline: as §1

T3 sequence (P35367 whole entry): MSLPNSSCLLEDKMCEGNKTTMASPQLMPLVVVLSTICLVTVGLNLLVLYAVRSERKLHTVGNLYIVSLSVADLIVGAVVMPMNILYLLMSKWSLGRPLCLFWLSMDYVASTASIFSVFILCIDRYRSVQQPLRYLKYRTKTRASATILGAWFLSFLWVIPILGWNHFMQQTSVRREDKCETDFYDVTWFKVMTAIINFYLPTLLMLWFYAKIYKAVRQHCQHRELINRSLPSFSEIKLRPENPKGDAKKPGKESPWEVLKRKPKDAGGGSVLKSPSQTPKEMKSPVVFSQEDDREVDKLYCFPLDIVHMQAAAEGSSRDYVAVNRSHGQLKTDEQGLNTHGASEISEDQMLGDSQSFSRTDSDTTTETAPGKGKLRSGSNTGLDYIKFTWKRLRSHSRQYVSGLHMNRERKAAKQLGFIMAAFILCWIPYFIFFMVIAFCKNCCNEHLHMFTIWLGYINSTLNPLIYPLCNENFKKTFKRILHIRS
T4 sequence (P23975 whole entry): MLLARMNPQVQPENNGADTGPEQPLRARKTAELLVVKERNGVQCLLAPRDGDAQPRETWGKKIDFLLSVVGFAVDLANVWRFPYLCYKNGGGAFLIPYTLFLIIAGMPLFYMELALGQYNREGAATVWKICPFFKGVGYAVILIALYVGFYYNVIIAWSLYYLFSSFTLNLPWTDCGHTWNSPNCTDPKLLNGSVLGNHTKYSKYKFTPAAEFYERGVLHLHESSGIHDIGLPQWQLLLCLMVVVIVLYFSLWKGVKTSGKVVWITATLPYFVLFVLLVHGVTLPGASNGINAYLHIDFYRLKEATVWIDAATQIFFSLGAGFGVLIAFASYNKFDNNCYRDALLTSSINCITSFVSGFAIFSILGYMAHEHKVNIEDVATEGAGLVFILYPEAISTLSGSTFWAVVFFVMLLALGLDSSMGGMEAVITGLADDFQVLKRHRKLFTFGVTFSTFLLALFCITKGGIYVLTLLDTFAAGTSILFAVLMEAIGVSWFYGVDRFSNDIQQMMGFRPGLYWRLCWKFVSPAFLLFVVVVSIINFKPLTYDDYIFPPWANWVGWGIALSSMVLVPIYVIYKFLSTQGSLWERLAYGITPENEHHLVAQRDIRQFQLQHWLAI
T2 sequence (P41595 whole entry): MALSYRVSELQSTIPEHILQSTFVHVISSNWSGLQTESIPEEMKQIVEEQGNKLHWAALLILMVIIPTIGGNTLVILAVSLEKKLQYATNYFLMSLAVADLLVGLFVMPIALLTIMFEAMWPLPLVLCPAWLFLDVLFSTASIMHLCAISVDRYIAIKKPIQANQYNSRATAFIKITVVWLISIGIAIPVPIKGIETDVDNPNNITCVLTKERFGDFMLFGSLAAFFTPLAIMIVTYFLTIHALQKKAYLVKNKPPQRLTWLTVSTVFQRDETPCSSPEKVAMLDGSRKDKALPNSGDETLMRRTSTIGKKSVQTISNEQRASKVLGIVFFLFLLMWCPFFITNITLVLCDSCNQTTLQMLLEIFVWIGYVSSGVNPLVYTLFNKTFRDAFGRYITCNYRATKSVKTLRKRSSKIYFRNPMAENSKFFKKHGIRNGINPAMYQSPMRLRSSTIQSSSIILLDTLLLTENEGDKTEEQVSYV
T1 sequence (Q01959 whole entry): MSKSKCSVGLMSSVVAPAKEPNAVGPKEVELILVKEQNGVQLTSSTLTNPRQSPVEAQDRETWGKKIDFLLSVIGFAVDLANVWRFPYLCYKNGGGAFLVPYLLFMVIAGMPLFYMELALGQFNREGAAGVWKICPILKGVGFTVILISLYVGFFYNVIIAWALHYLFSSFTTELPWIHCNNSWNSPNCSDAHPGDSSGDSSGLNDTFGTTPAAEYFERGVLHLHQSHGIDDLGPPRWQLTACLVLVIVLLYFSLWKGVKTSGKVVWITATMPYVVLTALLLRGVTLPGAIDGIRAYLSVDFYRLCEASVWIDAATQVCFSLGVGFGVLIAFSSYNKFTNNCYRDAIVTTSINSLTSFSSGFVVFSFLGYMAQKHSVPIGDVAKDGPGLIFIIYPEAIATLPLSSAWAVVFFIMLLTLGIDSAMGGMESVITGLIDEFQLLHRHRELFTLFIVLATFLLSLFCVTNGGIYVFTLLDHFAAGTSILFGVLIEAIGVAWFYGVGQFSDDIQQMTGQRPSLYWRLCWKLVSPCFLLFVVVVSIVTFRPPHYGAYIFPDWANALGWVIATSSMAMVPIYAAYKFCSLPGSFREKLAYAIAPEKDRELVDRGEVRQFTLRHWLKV

## CC(=O)N1CCC(NC(=O)NC23CC4CC(CC(C4)C2)C3)CC1 [UNC10302683A, AR9281]
[1]
  Mean %: 71.25%
  Inhibition 1: 78.11%
  Inhibition 2: 65.9%
  Inhibition 3: 74.33%
  Inhibition 4: 66.66%
[2]
  Mean %: -14.63%
  Inhibition 1: 28.05%
  Inhibition 2: -19.35%
  Inhibition 3: -37.81%
  Inhibition 4: -29.42%
[3]
  Mean %: 76.51%
  Inhibition 1: 98.85%
  Inhibition 2: 86%
  Inhibition 3: 68.77%
  Inhibition 4: 52.43%
[4]
  Mean %: 6.47% and 1.67%
  Inhibition 1: -14.58% and 25.31%
  Inhibition 2: -2.12% and 13.5%
  Inhibition 3: 2.28% and -19.09%
  Inhibition 4: 40.3% and -13.05%
[5]
  Mean %: -10.23%
  Inhibition 1: -16.19%
  Inhibition 2: -6.36%
  Inhibition 3: -14.96%
  Inhibition 4: -3.41%
[6]
  Mean %: -4.97%
  Inhibition 1: 0.06%
  Inhibition 2: -4.77%
  Inhibition 3: -10.3%
  Inhibition 4: -4.87%
[7]; Alpha1A
  Mean %: -5.99%
  Inhibition 1: 5.7%
  Inhibition 2: -8.88%
  Inhibition 3: -13.37%
  Inhibition 4: -7.39%
[7]; Alpha2A
  Mean %: -4.95%
  Inhibition 1: 1.83%
  Inhibition 2: 1.33%
  Inhibition 3: -3.6%
  Inhibition 4: -19.37%
[7]; Alpha2C
  Mean %: -1.59%
  Inhibition 1: 8.16%
  Inhibition 2: -7.23%
  Inhibition 3: -5.47%
  Inhibition 4: -1.81%
[7]; BZP Rat Brain Site
  Mean %: -1.68%
  Inhibition 1: -9.6%
  Inhibition 2: -7.42%
  Inhibition 3: 1.02%
  Inhibition 4: 9.27%
[7]; DOR
  Mean %: -7.7%
  Inhibition 1: -16.42%
  Inhibition 2: -2.69%
  Inhibition 3: 0.93%
  Inhibition 4: -12.63%
[7]; GABAA
  Inhibition 1: 12.11% and 21.01%
  Inhibition 2: 4.71% and -10.34%
  Inhibition 3: 1.76% and -2.77%
  Inhibition 4: 5.45% and -49.8%
[7]; H3
  Mean %: 8.09%
  Inhibition 1: 9.84%
  Inhibition 2: -10.86%
  Inhibition 3: 12.17%
  Inhibition 4: 21.2%
[7]; H4
  Mean %: -2.1%
  Inhibition 1: -0.42%
  Inhibition 2: -2.58%
  Inhibition 3: -25.38%
  Inhibition 4: 19.98%
[7]; Sigma 1
  Mean %: 8.41%
[7]; Sigma 2
  Mean %: -5.79%

## MDL 28170 [UNC10302675A]
[1]
  Mean %: 35.54%
  Inhibition 1: 41.81%
  Inhibition 2: 27.44%
  Inhibition 3: 32.41%
  Inhibition 4: 40.51%
[2]
  Mean %: -23.86%
  Inhibition 1: -2.15%
  Inhibition 2: -34.45%
  Inhibition 3: -28.58%
  Inhibition 4: -30.26%
[3]
  Mean %: 62.36%
  Inhibition 1: 85.46%
  Inhibition 2: 73.14%
  Inhibition 3: 49.84%
  Inhibition 4: 41%
[4]
  Mean %: 1.5% and 5.58%
  Inhibition 1: 1.64% and 23.85%
  Inhibition 2: -18.73% and 10.38%
  Inhibition 3: -4.59% and 3.46%
  Inhibition 4: 27.68% and -15.39%
[5]
  Mean %: 1.32%
  Inhibition 1: -8.82%
  Inhibition 2: -11.77%
  Inhibition 3: 0.03%
  Inhibition 4: 25.84%
[6]
  Mean %: -3.08%
  Inhibition 1: 7.51%
  Inhibition 2: -10.6%
  Inhibition 3: 0.26%
  Inhibition 4: -9.5%
[7]; Alpha1A
  Mean %: 5.14%
  Inhibition 1: 14.68%
  Inhibition 2: -1.03%
  Inhibition 3: -8.14%
  Inhibition 4: 15.06%
[7]; Alpha2A
  Mean %: -0.83%
  Inhibition 1: 3.33%
  Inhibition 2: -2.81%
  Inhibition 3: -6.74%
  Inhibition 4: 2.9%
[7]; Alpha2C
  Mean %: -3.61%
  Inhibition 1: -3.7%
  Inhibition 2: -0.8%
  Inhibition 3: -1.62%
  Inhibition 4: -8.31%
[7]; BZP Rat Brain Site
  Mean %: 7.23%
  Inhibition 1: 18.74%
  Inhibition 2: 4.91%
  Inhibition 3: -1.16%
  Inhibition 4: 6.42%
[7]; DOR
  Mean %: -10.37%
  Inhibition 1: -5.94%
  Inhibition 2: -12.45%
  Inhibition 3: -15.16%
  Inhibition 4: -7.93%
[7]; GABAA
  Inhibition 1: 16.54% and -28.18%
  Inhibition 2: 2.5% and -11.42%
  Inhibition 3: 1.02% and 0%
  Inhibition 4: 29.11% and -5.47%
[7]; H3
  Mean %: 9.84%
  Inhibition 1: 9.54%
  Inhibition 2: 0.8%
  Inhibition 3: 7.8%
  Inhibition 4: 21.2%
[7]; H4
  Mean %: -7.26%
  Inhibition 1: -26.58%
  Inhibition 2: 0.78%
  Inhibition 3: -5.94%
  Inhibition 4: 2.7%
[7]; Sigma 1
  Mean %: 5.78%
[7]; Sigma 2
  Mean %: 26.55%
